The target in the assay is T1, GABARAPL2 (Homo sapiens, UniProt P60520).
T1 construct: GST (N, cleaved yes); made in house; host or cells: E. coli BL21 (DE3)
Description: Surface plasmon resonance (SPR) binding of GABARAPL2 to captured NDP52 I133W LIR peptide, steady state. To be noted: full-length GABARAPL2 (C-terminal Phe117 present) injected over N-terminal LC-biotin peptide on streptavidin chip, BIAcore S200, 10 mM HEPES, 150 mM NaCl, 3.4 mM EDTA, 0.05% Tween pH 7.4, threefold, ten-step dilution series, injected 160 s, 800 s dissociation, steady-state fit, report point 145 s after injection. How it is done:
GABARAPL2 was expressed and purified as described previously (Muhlinen et al., 2012[▸]). Briefly, Escherichia coli strain BL21 (DE3) cells were transformed with a pETM-30 plasmid harbouring the GABARAPL2 gene (Table 1 ▸). The cells were grown in 1 l Luria Broth (LB) medium supplemented with 100 mg l^−1 kanamycin at 37°C with agitation. Gene expression was induced when the cell density (OD600) reached approximately 0.6 by the addition of […] isopropyl β-D-1-thiogalactopyranoside (IPTG) for 3 h. Cell pellets were obtained by centrifugation at 5000g for 10 min and were lysed by sonication in lysis buffer (50 mM Tris pH 8.0, 150 mM NaCl, 1 mM EDTA) at 4°C. The lysate was clarified by centrifugation at 45 000g for 45 min and was filtered through a […] filter and immobilized on a column containing 1 ml Gluthathione Sepharose 4B resin (GE Life Sciences). GABARAPL2 was cleaved from the GST fusion protein on-column with 200 µg TEV protease and 0.5 mM TCEP overnight at 4°C. […]
Surface plasmon resonance (SPR) binding assays were performed using a BIAcore S200 in SPR buffer consisting of 10 mM HEPES, 150 mM NaCl, 3.4 mM EDTA, 0.05% Tween pH 7.4. […] The sensorgrams were analysed at steady state using a report point 145 s after injection, averaging the response over 5 s. […]
(In general: SPR reads the build-up and loss of mass on a sensor chip optically.)

SMILES strings stand for the structures. pKd: −log10 of the molar value.

T1 sequence (P60520 with tags, fused parts or gaps): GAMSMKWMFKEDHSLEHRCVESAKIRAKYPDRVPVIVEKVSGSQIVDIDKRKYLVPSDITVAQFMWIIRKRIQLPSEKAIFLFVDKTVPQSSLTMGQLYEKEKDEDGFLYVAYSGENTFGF

For the compound `CC(C)C[C@H](NC(=O)[C@H](Cc1c[nH]c2ccccc12)NC(=O)[C@H](CC(=O)O)NC(=O)[C@H](CCC(=O)O)NC(=O)[C@H](CCC(=O)O)NC(=O)[C@H](CC(N)=O)NC(=O)[C@@H](N)CCC(=O)O)C(=O)N[C@H](C(=O)N[C@H](C(=O)N[C@H](C(=O)N[C@H](C(=O)N[C@@H](CCC(N)=O)C(=O)NCC(=O)N[C@@H](CCC(=O)O)C(=O)O)[C@@H](C)O)[C@@H](C)O)C(C)C)C(C)C` [NDP52 I133W LIR peptide, ENEEDWLVVTTQGE], the negative-log Kd (pKd) is 5.31 (SPR Experiment 1) and 5.29 (SPR Experiment 2).

Broadly, the pKd is −log10 of the Kd, conventionally taken in molar units. A lower pKd goes with a high Kd.

These data come from paper PMC8098127, “A new crystal form of GABARAPL2” (Acta Crystallographica. Section F, Structural Biology …, 2021).
